“Also recorded” adds a separate entry of the source. Read-outs that look alike come from different tables or passages of the source.
Experiments:
[1] = tested on: NDUFV1 KO NDI1 flank xenografts; test: Tumor growth delay of NDUFV1 KO NDI1 flank xenografts with XRT; type: in vivo, mice; settings: 2 mg/kg PPV 35 minutes prior to 8 Gy
Method: FIGS. 5A-5E show papaverine radiosensitizes through complex I inhibition. […] Values represent mean viable cells+−SD. […] Values are mean+−SD. […] P value was calculated with two-tailed two-sample t test. […] Curves represent mean tumor volumes+−SEM.
FIGS. 6A-6E show uncropped western blot membrane used for FIG. 5A showing NDUFV1 and PDH E1α levels (FIG. 6A) before probing for NDI1 (FIG. 6B). […] Values represent mean OCR from at least 5 replicates+−SD. […] Curves represent averaged colony counts+−SD. […] Values are mean tumor volumes+−SEM.
Tumor Growth kinetics. 2×10^6 EO771 or 5×10^6 A549 cells were injected s.c. into the flanks of 6-week old female immunocompetent C57/B6 (EO771) or immunocompromised nu/nu (A549) mice. Caliper measurements of opposing diameter were used to calculate the tumor volumes. Upon reaching […], the tumors were visualized by cone beam CT and treatment plans calculated using SARRP software. […] Tumor volumes were measured until the post treatment volume increased 3-fold. Error bars represent standard deviation.

[2] = tested on: EO771 cells; type: cell-based, Murine; settings: for competition with rotenone on OCR: PPV given before rotenone; for inhibition of oxygen consumption (OCR), effective concentration (words): real time Seahorse XF dose response
Method: Error bars represent standard deviation.
FIGS. 2A-2D are OCR measurements and cell viability assessments. FIG. 2A-2B are representative of OCR measurement in competition assay between PPV and complex I inhibitors piericidin A (FIG. 2A) and capsaicin (FIG. 2B). Values represent the means+−SD. […] Bar charts represent mean of viable cells in duplicates+−standard deviation.
Seahorse analysis of the OCR. Oxygen consumption rate (OCR) was measured using Seahorse XF96 Flux Analyzer (Agilent Technologies). The cells were seeded to attach overnight, wells were washed with pre-warmed XF Calibrant (Agilent Technologies) and the replaced with unbuffered Assay Medium (pH 7.4, 5 mM glucose, 1 mM L-glutamine). The plates were incubated at 37° C. in a CO2-free incubator for 2 hours prior to assay. For succinate rescue assay, cells were permeabilized using XF Plasma Membrane Permeabilizer Reagent (XF PMP, Agilent Technologies) according to the manufacturer's instructions. The OCR rate was measured in 1× Mitochondrial Assay Solution (MAS) (70 mM sucrose, 220 mM mannitol, 10 mM KH2PO4, 5 mM MgCl2, 2 mM Hepes, 0.6% (w/v) fatty acid-free BSA and 1 mM EGTA; pH 7.4). After baseline oxygenation was established, 1 μM rotenone or 10 μM PPV was injected at time A, followed by 5 mM succinate at time B. Error bars represent standard deviation. For the washout experiment, EO771 cells were seeded overnight, then treated with 10 μM PPV or 1 μM rotenone 3 hours prior to OCR measurement. Media was replaced 1 and 2 hours before measurement and OCR reported.

[3] = tested on: EO771 or A549 flank tumors; test: FD-NIRS tissue oxygenation in tumor-bearing mice; type: in vivo
Method: In vivo oxygenation measurements. All animal experiments were performed according to protocols approved by institutional IACUC review, with daily veterinarian observation. 2×10^6 EO771 or 5×10^6 A549 cells were injected s.c. into the flanks of 6-week old female immunocompromised nu/nu mice. Caliper measurements of opposing diameters were used to calculate the tumor volumes. Upon reaching […], the animals were anesthetized by inhalation of 1.5% isoflurane and tumor and thigh muscle oxygenation was measured with NIRS optical probe for 30 minutes. Once the baseline oxygenation was established, the animals were injected with either 2 mg per kg of body weight of papaverine hydrochloride or saline by tail vein. Tissue oxygenation was measured for 120 minutes. Obtained oxygenation values were normalized to time of injection and average of 5 traces per treatment averaged. Error bars represent the standard deviation.
Frequency-domain near-infrared spectroscopy (FD-NIRS) can noninvasively quantify tissue hemoglobin concentration (THb) and oxygenation (SO2) in real time. This technology uses light in the 700-800 nm wavelength because it has reasonably good tissue penetration (nominally 1-2 cm in depth). A FD-NIRS system with a novel side firing probe to measure changes in tumor oxygenation in response to pharmacological intervention was developed and used in this example. This example has generated in vivo data showing that papaverine can increase oxygenation in xenografted tumors in mice.
The FD-NIRS instrument consists of a network analyzer as the radio frequency (RF) source and phase-sensitive detection system, a 1×4 RF switch, a 4×2 optical switch, a multi-channel laser diode controller, four laser diodes (654, 779, 805 and 847 nm) installed in mounts with a bias-T, an avalanche photodiode (APD) module, and a laptop computer loaded with custom software. The surface probe consists of two side-firing source fibers (200/220/240 µm, NA=0.22) and a single side-firing detection fiber (600/660/710 µm, NA=0.22), providing two source-detector separations (SDSs) of 5 and 10 mm, respectively. The fiber tips are polished to a […] and coated with a mirror to create a light path perpendicular to the fiber. All the fiber tips are epoxied into a V-groove on a thin Delrin plate (biocompatible) so that it can be easily attached to the skin surface above a tumor. The two SDSs allow elimination of artifacts due to instrument response and the skin effects, while providing a penetration depth around 10-15 mm in typical tissue.
The FD-NIRS instrument launches intensity-modulated continuous wave lasers into the tissue and collects the amplitude-attenuated and phase-shifted diffuse reflectance from the tissue at the same frequency of the incident light, both through the side-firing probe. […]

COc1ccc(Cc2nccc3cc(OC)c(OC)cc23)cc1OC [PPV, papaverine]
radiation growth delay with drug [1]: resistant to PPV dependent increase in radiation growth delay
efficiency at rotenone binding pocket relative to rotenone [2]: approximately 100 × lower efficiency
competition with rotenone on OCR [2]: block the activity of the classical complex 1 inhibitor rotenone
competition with rotenone on OCR ([2]; listed as papaverine): blocked rotenone's inhibitory activity
interaction with complex 1 inhibitors piericidin A or capsaicin ([2]; competition assay): no interaction
inhibition of oxygen consumption (OCR), effective concentration (words) [2]: effective at low micromolar concentrations
inhibition of oxygen consumption (OCR), effective concentration (words) ([2]; listed as Papaverine): rapidly inhibited oxygen consumption at low micromolar concentrations
tumor oxygenation ([3]; 2 mg/kg by tail vein, within first 30-45 minutes): significantly increased the oxygenation; also recorded: statistically significant
oxygenation of normal thigh muscle ([3]; 2 mg/kg i.v.): no significant change
maximum tumor oxygenation above baseline ([3]; 2 mg/kg i.v., 30 min post injection): 1.35-1.45 × above baseline
oxygenation of normal thigh muscle ([3]; 2 mg/kg i.v., listed as papaverine): no change was detected

From patent US20210163453A1, “DERIVATIVES OF PAPAVERINE THAT ARE EFFECTIVE HYPOXIC TUMOR RADIOSENSITIZERS” (Ohio State Innovation Foundation, priority 2018, published 2021)
